Experimental data taken from patent publication US20080269293A1, “PYRAZOLE DERIVATIVES AS ANTI-PLATELET AND ANTI-THROMBOTIC AGENTS” (Pfizer Inc., priority 2006, published 2008).

Target: T1, platelet P2Y1 receptor (Homo sapiens, UniProt P47900)
T1 construct: expressed in transfected cells
Assay: P2Y1 receptor binding assay ([β-33P]-2-thiomethyl ADP)
Conditions: binding of 0.3 nM [β-33P]-2-thiomethyl ADP, hP2Y1 expressing 132N1 cell membrane, 25° C., 60 minutes
Method: Conducting P2Y, Receptor Binding Assay
[β−^33P]-2-thiomethyl ADP (2100 Ci/mmol) was purchased from PerkinElmer, Protease Inhibitors Complete, EDTA-free, was purchased from Roche, and ADP (Adenosine diphosphate), MRS2179, and 2-thiomethy ADP (2-Me-S-ADP) were purchased from Sigma Chemical Co.
Binding of 0.3 nM [β-^33P]-2-thiomethyl ADP to platelet P2Y1 receptor in 132N1 cell membrane was carried out in triplicate at 25° C. with 96 well plate (Corning, 3365). Nonspecific binding was defined as binding in the presence of 1 μM of 2-Me-S-ADP. One […] of dimethyl sulfoxide (DMSO) or 1 μL of DMSO (Sigma-Aldrich, 472301) containing a test compound diluted to final assay concentrations of 0.1 nM to 1 mM were placed into each well of a Corning 96-well plate. A volume of 60 μL of buffer: 50 mM Tris pH 7.5 (Sigma, T-2194), 1 mM EDTA (Gibco, 15575-038) and 100 mM NaCl (Gibco, 200740-011) containing 0.3 nM [β-^33P]-2-thiomethyl ADP 40 μL of hP2Y1 expressing 132N1 cell membrane prep was added to each well. After incubation on shaker for 60 minutes, The contents of the wells are filtered and washed 8 times with Tomtec Cell Harvester through UniFilter 96, GF/B plates (PerkinElmer, 6005177) Forty five microliters […] Scintillation cocktail (Ultima-Flo-M) was added into each well and plates counted on a Trilux Microbeta Counter.
• 1. Add 1 μL DMSO or compounds into the wells according to the protocol. • 2. Add 60 μL incubation buffer with [β-^33P]-2-thiomethyl ADP into each well. • 3. Add 40 μL hP2Y1 expressing 132N1 cell membrance prep. Incubate 60 minutes on top of the shaker (IKA Shutter MTS4). • 4. Filter and wash 8× with Tomtec Cell Harvester through UniFilter GF/B plates (PerkinElmer, 6005177). • 5. Add 45 μL scintillation cocktail into each well and plates counted on a Trilux Microbeta Counter.

T1 sequence (P47900 whole entry): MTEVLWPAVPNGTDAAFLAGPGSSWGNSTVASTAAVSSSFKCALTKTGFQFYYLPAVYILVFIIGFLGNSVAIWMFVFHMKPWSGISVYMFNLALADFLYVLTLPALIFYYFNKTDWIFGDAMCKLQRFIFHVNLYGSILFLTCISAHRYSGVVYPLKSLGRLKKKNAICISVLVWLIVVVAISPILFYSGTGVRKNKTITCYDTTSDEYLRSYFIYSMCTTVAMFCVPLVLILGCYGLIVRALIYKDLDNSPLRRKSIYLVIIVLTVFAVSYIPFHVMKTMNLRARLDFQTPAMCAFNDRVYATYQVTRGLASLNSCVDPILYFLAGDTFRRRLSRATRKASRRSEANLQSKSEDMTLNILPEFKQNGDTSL

Compound | IC50 [nM]
CC(=O)c1ccc(NC(=O)Nc2ccccc2Oc2cc(C)nn2-c2ccccc2Cl)cc1 [Example 118, 1-(4-acetylphenyl)-3-(2-(1-(2-chlorophenyl)-3-methyl-1H-pyrazol-5-yloxy)phenyl)urea] | > 3330
CCCc1ccccc1-n1nc(C)cc1Oc1ccccc1NC(=O)Nc1ccc(OC(F)(F)F)cc1 [Example 119, 1-(2-(1-(2-propylphenyl)-3-methyl-1H-pyrazol-5-yloxy)phenyl)-3-(4-(trifluoromethoxy)phenyl)urea] | 88
Cc1cc(Oc2ccccc2NC(=O)Nc2ccc(C3CCNCC3)cc2)n(-c2ccccc2Cl)n1 [Example 120, 1-(2-(1-(2-chlorophenyl)-3-methyl-1H-pyrazol-5-yloxy)phenyl)-3-(4-(piperidin-4-yl)phenyl)urea] | > 10000
CC(=O)N1CCC(c2ccc(NC(=O)Nc3ccccc3Oc3cc(C)nn3-c3ccccc3Cl)cc2)CC1 [Example 121, 1-(4-(1-acetylpiperidin-4-yl)phenyl)-3-(2-(1-(2-chlorophenyl)-3-methyl-1H-pyrazol-5-yloxy)phenyl)urea] | > 10000
Cc1cc(Oc2ccccc2NC(=O)Nc2ccc(C3CCN(C)CC3)cc2)n(-c2ccccc2Cl)n1 [Example 122, 1-(2-(1-(2-chlorophenyl)-3-methyl-1H-pyrazol-5-yloxy)phenyl)-3-(4-(1-methylpiperidin-4-yl)phenyl)urea] | > 10000
Cc1cc(Oc2ccccc2NC(=O)Nc2ccc(C3CC3)cc2)n(-c2ccccc2Cl)n1 [Example 123, 1-(2-(1-(2-chlorophenyl)-3-methyl-1H-pyrazol-5-yloxy)phenyl)-3-(4-cyclopropylphenyl)urea] | 121
Cc1cc(Oc2ccccc2NC(=O)Nc2ccc(C3CCCC3)cc2)n(-c2ccccc2Cl)n1 [Example 124, 1-(2-(1-(2-chlorophenyl)-3-methyl-1H-pyrazol-5-yloxy)phenyl)-3-(4-cyclopentylphenyl)urea] | 32
Cc1cc(Oc2ccccc2NC(=O)Nc2ccc(OC(F)(F)F)cc2)n(-c2ccccc2Br)n1 [Example 125, 1-(2-(1-(2-bromophenyl)-3-methyl-1H-pyrazol-5-yloxy)phenyl)-3-(4-(trifluoromethoxy)phenyl)urea] | 182
Cc1cc(Oc2ccccc2NC(=O)Nc2ccc(Br)cc2)n(-c2ccccc2Cl)n1 [Example 126, 1-(4-bromophenyl)-3-(2-(1-(2-chlorophenyl)-3-methyl-1H-pyrazol-5-yloxy)phenyl)urea] | 170
Cc1cc(Oc2ccccc2NC(=O)Nc2ccc(C3CCSCC3)cc2)n(-c2ccccc2Cl)n1 [Example 127, 1-(2-(1-(2-chlorophenyl)-3-methyl-1H-pyrazol-5-yloxy)phenyl)-3-(4-(tetrahydro-2H-thiopyran-4-yl)phenyl)urea] | 158
Cc1cc(Oc2ccccc2NC(=O)Nc2ccc(C3CCOCC3)cc2)n(-c2ccccc2Cl)n1 [Example 128, 1-(2-(1-(2-chlorophenyl)-3-methyl-1H-pyrazol-5-yloxy)phenyl)-3-(4-(tetrahydro-2H-pyran-4-yl)phenyl)urea] | 763
Cc1cc(Oc2ccccc2NC(=O)Nc2ccc(C3CCS(=O)(=O)CC3)cc2)n(-c2ccccc2Cl)n1 [Example 129] | > 10000
